Drawing on article PMC9170038, this text covers Kd and binding for one compound.

Experiment [1] deals with Tryptophan aptamer, RNA-MaP condition construct (RNA, aptamer) GGAAAGGCGAGCGGCCGCCACUGUUCGCAGGACCGGGCUCGCCAAAGAAACAACAACAACAAC
Briefly: DMS chemical mapping. As to conditions: 80 mM KCl, 4 mM MgCl2; 100 mM Tris-HCl, pH 7.5, 37 °C.

The test system of experiment [2] is Tryptophan aptamer, Light-up construct (RNA, aptamer) GGGAACGUCUCCGAGUAGGAGACGAAGGGAGAGUGGCAGCUUACAAACUACAGUUGCGGCCGCCACUGCGAAGGACGGGUCCCUCGAAAGAGGUUGAGUAGAGUGUGAGCGCAGGACCGGGCAACAGUAGUAAGUGGGCUGUUGCUUUUCCAAGCUUAUCGAGUAGAUAAGCAAAAAGAAACAACAACAACAAC
Description: DMS chemical mapping. Conditions: 5 mM MgCl2, 1x PBS, pH 6.1, 24 °C.

The test system of experiment [3] is BH_E029 (RNA, aptamer) GGGAGAGUGGCAGCUUACAACGUAACGAUGCGGCCGCCACUGAUCCGACUGGUUAACAGAAAGUCCUGACCAGGUAACGAAUGGUCAGGACCGGGCAUUGUUACGAAGUGGGCUGUUGCUUUUCC
Description: light-up fluorescence kinetics (malachite green). As to conditions: 5 mM MgCl2, 1x PBS, pH 6.1, 2.4 mM Trp with malachite green present.

Molecules are shown by their SMILES.

Turning to `N[C@@H](Cc1c[nH]c2ccccc12)C(=O)O`, the Kd in experiment [1] was 12.09 ± 10.50/-5.19 μM; in experiment [2], 11.59 ± 9.49/-5.00 μM. The binding result in experiment [3] is on record as “yes”.
